Earlier results on one compound are cited in US20220079967A1, “COMPOSITION FOR IMPROVING VASCULAR ENDOTHELIAL FUNCTION” (SAN-EI GEN F.F.I., INC., priority 2019, published 2022).

The data set deals with endothelial function and blood pressure. To be noted: administered to human, also with increased dosage (Bondonno et al. 2016).

Regarding `O=c1c(O[C@@H]2O[C@H](CO)[C@@H](O)[C@H](O)[C@H]2O)c(-c2ccc(O)c(O)c2)oc2cc(O)cc(O)c12` [isoquercitrin], the “effect on FMD value” is on record as “does not affect” and the “effect on blood pressure” value is “does not affect”.
